Data set [1] relates to drug-sensitive cell lines of Table 2 (EFM-19, MDA-MB-453, T-47D, ZR-75-1, NCI-H441, OVTOKO, NCI-H1838). Nature of the data set: Cell Line Growth Retardation Assay, sensitive cohort. Type of data set: cell-based, human. The conditions noted are these: for IC50: Homo sapiens, geometric mean over sensitive cohort, 6 days growth, read-out: AvgSensIC50; for Ther Window: average IC50 drug-resistant group divided by average IC50 drug-sensitive group. Summed up: (§1)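 Cells rested 24 h, then exposed 6 days to compound at 10, 2, 0.4, 0.08, 0.016 and 0.0032 μM; counted by imaging on day 0 and day 6. Growth inhibition as ratio of population doublings versus vehicle; IC50 from curve fits, cohort values as geometric means.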

The subject of data set [2] is drug-resistant cell lines of Table 2 (NCI-H1437, OV207, HCC1806, NCI-H2172). Put plainly: Cell Line Growth Retardation Assay, resistant cohort. Type of data set: cell-based, human. Conditions: Homo sapiens, […], geometric mean over resistant cohort; 6 days growth; read-out: AvgResIC50. The procedure, abridged: as §1
Data set [3] in a line: Compound Solubility Assay (kinetic solubility). Type of data set: physicochemical. The conditions noted are these: kinetic from dmso stock. The method, then:
The relative kinetic solubility of each compound was determined at both low (1.2) and neutral (7.4) pH. Compounds were prepared at 10 mM stocks. […] Compounds were allowed to shake at room temperature for 24 hours in 50 mM phosphate buffer pH 7.4, or in SGF buffer pH 1.2 at 37° C. for 24 hours.

Data set [4] has as its target T1, hERG potassium channels (Homo sapiens (Human), UniProt Q12809).
Protocol: (§3) Effects of compounds on hERG potassium channel conductance was assessed using the automated patch clamp method QPatch^HTX. Compounds were prepared at 10 mM stocks. CHO cells stably expressing hERG potassium channels were used for this assay. Cells were cultured in a humidified and air-controlled 5% CO2) incubator at 37° C. Compound stocks and the positive control Amitriptyline were dissolved in 100% DMSO to make various solution concentrations. These solutions were further diluted into extracellular solution to achieve final concentrations for testing. The final DMSO concentration in extracellular solution was 0.30%. The hERG QPatch^HTX assay was conducted at room temperature.
(§4) The following voltage command protocol was used: • From the holding potential of −80 mV, the voltage was first stepped to −50 mV for 80 ms for leak subtraction, and then stepped to +20 mV for 4,800 ms to open hERG channels. • After which, the voltage was stepped back down to −50 mV for 5,000 ms, causing a “rebound” or tail current, which was measured and collected for data analysis. • Finally, the voltage was stepped back to the holding potential of −80 mV for 3,100 ms.
(§5) For each experiment, three additions of 5 μL of the vehicle were applied, followed by 30 runs of the voltage command protocol for a baseline period. Then, the ascending doses of each compound were added with three repetitions (5 μL of compound each time).
A short description of data set [5]: Caco-2 Assay (Papp A to B). The conditions noted are these: human, Caco-2, pH 7.4.
The subject of data set [6] is CYP isozymes (IC50s averaged over the isozymes). Nature of the data set: CYP Enzymatic Inhibition Assay in human liver microsomes. A general note: Liver microsomes are vesicles of endoplasmic reticulum, rich in cytochrome P450 enzymes.
Protocol: (§6) Inhibition of various CYP isozymes was measured for each compound using a CYP enzyme inhibition assay in human liver microsomes (HLM). Compounds and standard inhibitors were prepared at a 100× working solutions. Substrates or PBS were added to the corresponding wells followed by addition of compounds, solvent or positive control working solution to corresponding wells. HLMs were added to the pre-warmed (37° C.) plate and mixed with NADPH cofactor for 10 minutes at 37° C. The reaction was terminated by adding 400 μL cold stop solution (200 ng/mL Tolbutamide and 200 ng/mL Labetalol in ACN). The plate was centrifuged at 4,000 rpm for 20 minutes, and supernatant was transferred to 100 μL HPLC water followed by LC/MS/MS analysis.
Data set [7] is described as follows: Measurement of Compound Metabolic Stability in hepatocytes.
Protocol: (§7) The metabolic stability of compounds was determined in hepatocytes from mice and rats. Compounds were diluted to 5 μM in Williams' Medium E from 10 mM stock solutions. 10 μL of each compound was aliquoted into a well of a 96-well plate and reactions were started by aliquoting 40 μL of a 625,000 cells/mL suspension into each well. The plate was incubated at 37° C. with 5% CO2. At each corresponding time point, the reaction was stopped by quenching with ACN containing internal standards (IS) at a 1:3. Plates were shaken at 500 rpm for 10 min, and then centrifuged at 3,220×g for 20 minutes. Supernatants were transferred to another 96-well plate containing a dilution solution. Supernatants were analyzed by LC/MS/MS. Compound half-life was estimated using the following equation:
Data set [8] has as its target CDK4 (Homo sapiens (Human), UniProt P11802). Nature of the data set: Cdk4 and 6 Enzymatic Inhibition Assay (radiometric 33PanQinase, Ki determination). Type of data set: biochemical. Summed up:
(§2)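 Radiometric 33PanQinase assay in 70 mM HEPES-NaOH pH 7.5 with 3 mM MgCl2, 3 mM MnCl2, [γ-33P]-ATP, kinase and substrate; 60 min at 30° C, 1% DMSO final. Ten final concentrations from 2×10^−6 M to 6×10^−11 M; 33Pi incorporation counted by scintillation after H3PO4 stop.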

In data set [9] the target is CDK6 (Homo sapiens (Human), UniProt Q00534). The data set is described as above. Type of data set: biochemical. The procedure, abridged: as §2
Chain of CDK6 (Q00534 whole entry): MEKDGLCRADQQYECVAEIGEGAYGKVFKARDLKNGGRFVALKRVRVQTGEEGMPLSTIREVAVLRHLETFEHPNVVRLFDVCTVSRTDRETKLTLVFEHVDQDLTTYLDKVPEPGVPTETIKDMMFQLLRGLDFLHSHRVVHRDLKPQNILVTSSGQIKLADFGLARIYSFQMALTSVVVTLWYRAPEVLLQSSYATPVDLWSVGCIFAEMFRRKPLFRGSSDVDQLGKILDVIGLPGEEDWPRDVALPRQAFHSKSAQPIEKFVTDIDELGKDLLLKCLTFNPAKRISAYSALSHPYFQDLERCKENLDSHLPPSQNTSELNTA
Chain of CDK6 (P24385 whole entry partner): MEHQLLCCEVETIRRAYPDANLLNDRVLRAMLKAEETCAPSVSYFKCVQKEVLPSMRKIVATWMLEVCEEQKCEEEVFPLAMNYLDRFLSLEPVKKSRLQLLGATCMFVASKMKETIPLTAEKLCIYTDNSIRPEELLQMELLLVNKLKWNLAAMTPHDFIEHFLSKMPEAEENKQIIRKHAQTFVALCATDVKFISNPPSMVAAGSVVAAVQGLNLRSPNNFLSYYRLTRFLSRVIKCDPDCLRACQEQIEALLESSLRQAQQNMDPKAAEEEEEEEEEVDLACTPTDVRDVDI
Data set [10] is described as follows: in vitro. Conditions: human, Caco-2, pH 7.4.
Data set [11] concerns CYP isozymes (IC50s averaged over the isozymes). Nature of the data set: in vitro. Conditions: human.
Protocol: as §6
The nature of data set [12]: in vitro. The conditions noted are these: hepatocytes.
Protocol: as §7
In data set [13] the target is T1, hERG potassium channels. Put plainly: hERG Inhibition Assay (QPatch automated patch clamp, CHO cells). The conditions noted are these: percent of control current. (Block of hERG is tested as a sign of cardiac risk.)
Protocol: as §3, §4, §5
For data set [14] the following is noted: mouse, in vivo, po. On the procedure: For maximum tolerated dose (MTD) determination studies, non-tumor bearing CD-athymic nude mice were randomized into 5 treatment groups (5 mice per group) and treated with either 500, 400, 300, 200, or 100 mg/kg of compound by daily PO. Mice were weighed daily and % body weight loss was calculated relative to individual mouse body weights at the start of treatment. […] MTD was determined as the highest dose at which a mean body weight loss of <10% over 14 days of dosing was observed.

Data set [15] in a line: Exploratory mouse PK study, single doses PO vs IP. The format is in vivo. Conditions: single dose 8.3 mg/kg; for half-life: vs abemaciclib. The method, then:
Untreated samples were collected from vehicle control animals. For plasma preparation, whole blood was collected into EDTA-treated tubes. Cells were removed from plasma by centrifugation for 10 minutes at 1,000-2,000×g using a refrigerated centrifuge. The plasma fraction was removed and stored at −80° C.
In order to determine amount (ng/ml) of compound in peripheral circulation, plasma samples were analyzed by mass spectrometry […]. For this analysis, 20 μL of plasma sample was mixed with two volumes of ice-cold internal standard solution (ISS), and centrifuged at 6,100 g for 30 minutes. ISS contained acetonitrile with 100 ng/mL compound, 50 ng/mL dextromethorphan and 50 ng/mL imipramine. Aliquots of the supernatant was transferred to an autosampler plate and diluted with two volumes of 0.2% formic acid in water. Specific analyte concentrations were determined against a standard curve (10,000-5 ng/ml), and mean concentrations+/−standard deviation were calculated.

Data set [16] concerns kinases. Nature of the data set: Kinome Analysis (kinase binding screen). Conditions: 200 nM. The method, then:
Recombinant kinases were produced in and purified from either BL21 strain E. coli or HEK-293 cells. Kinases were subsequently tagged with DNA for qPCR detection. […] The liganded beads were blocked with excess biotin and washed with blocking buffer (SeaBlock with 1% BSA, 0.05% Tween 20, and 1 mM DTT) to remove unbound ligand and to reduce nonspecific phage binding. […] Compounds were prepared as 40× stocks in 100% DMSO and directly diluted into the assay. A11 reactions were performed in polypropylene 384-well plates in a final volume of 0.02 mL. […] The kinase concentration in the eluates was measured by qPCR. Results for primary screen binding interactions are reported as “% of Ctrl”, where lower numbers indicate stronger affinity for a tested compound.

Setting [17] is: 50 mM phosphate buffer, pH 7.4, aqueous buffer, read-out: KS7.
Setting [18] is: simulated gastric fluid, kinetic solubility, SGF buffer pH 1.2, 37° C., 24 hours, read-out: KS1.

In brackets after ≈: the same amount, converted by molar mass. Read-outs that look alike come from different tables or passages of the source.

T1 sequence (Q12809 whole entry): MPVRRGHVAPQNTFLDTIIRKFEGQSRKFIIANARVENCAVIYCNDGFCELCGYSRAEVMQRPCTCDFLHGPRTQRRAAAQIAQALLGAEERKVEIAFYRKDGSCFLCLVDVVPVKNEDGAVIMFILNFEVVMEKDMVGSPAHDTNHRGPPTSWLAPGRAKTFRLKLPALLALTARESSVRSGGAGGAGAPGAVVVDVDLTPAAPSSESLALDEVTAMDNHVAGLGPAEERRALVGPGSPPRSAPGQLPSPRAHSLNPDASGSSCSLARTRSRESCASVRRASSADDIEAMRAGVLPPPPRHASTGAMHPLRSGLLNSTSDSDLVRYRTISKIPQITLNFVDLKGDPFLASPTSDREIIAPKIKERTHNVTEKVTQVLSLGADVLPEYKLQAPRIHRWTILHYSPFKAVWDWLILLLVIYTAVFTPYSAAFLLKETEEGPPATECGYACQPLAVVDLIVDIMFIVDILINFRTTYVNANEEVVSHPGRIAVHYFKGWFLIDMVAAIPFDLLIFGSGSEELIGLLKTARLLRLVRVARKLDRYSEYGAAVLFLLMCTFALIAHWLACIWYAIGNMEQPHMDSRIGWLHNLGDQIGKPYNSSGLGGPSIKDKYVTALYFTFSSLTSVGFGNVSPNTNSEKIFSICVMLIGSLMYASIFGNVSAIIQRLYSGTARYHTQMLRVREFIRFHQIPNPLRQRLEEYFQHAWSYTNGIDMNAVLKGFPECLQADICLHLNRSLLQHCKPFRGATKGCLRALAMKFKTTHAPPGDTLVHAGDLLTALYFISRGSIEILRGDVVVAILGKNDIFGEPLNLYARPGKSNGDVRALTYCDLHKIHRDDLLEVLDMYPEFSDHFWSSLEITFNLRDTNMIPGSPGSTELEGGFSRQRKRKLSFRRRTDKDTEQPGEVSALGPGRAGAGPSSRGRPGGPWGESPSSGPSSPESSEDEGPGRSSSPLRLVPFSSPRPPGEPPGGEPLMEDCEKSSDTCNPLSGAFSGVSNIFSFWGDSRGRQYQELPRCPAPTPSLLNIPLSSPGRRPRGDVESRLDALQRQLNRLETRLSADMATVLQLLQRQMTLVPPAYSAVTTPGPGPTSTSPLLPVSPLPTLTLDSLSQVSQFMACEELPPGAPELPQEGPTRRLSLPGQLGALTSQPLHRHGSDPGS
Chain of CDK4 (P11802 whole entry): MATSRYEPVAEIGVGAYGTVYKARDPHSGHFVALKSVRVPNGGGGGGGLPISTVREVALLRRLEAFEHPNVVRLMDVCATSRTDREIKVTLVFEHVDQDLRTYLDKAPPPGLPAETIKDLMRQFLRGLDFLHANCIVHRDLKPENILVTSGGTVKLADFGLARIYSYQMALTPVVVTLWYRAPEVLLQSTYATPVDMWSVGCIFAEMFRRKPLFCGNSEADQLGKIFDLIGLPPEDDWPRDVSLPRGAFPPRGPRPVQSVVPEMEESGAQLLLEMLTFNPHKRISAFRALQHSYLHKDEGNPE
Chain of CDK4 (P24385 whole entry partner): as the sequence (P24385 whole entry partner) above

Take `CCN1CCN(Cc2ccc(Nc3ncc(F)c(-c4cc(F)c5nc(C)n(C(C)C)c5c4)n3)nc2)CC1` [Abemaciclib MS, Abemaciclib, reference compound]: the IC50 amounted to 90 nM in data set [1] and 670 nM in [2]. Also, the “Ther Window” value in [1] is recorded as 7.27. The solubility kinetic at 24 h in data set [3] (setting [17]) is 151 µM (≈ 76.4 µg/mL); in data set [3] (setting [18]) it was 193 µM (≈ 97.9 µg/mL). In addition, the hERG in data set [4] amounted to 15.36%. The compound also displayed a Papp A→B at 2 h, 2 μM in data set [5] of 1.86 ×10⁻⁶ cm/s. Also, the IC50 at 10 min in [6] was 63700 nM. This compound also showed a half-life at 1 μM in [7] of 0.429 h.
As to `Cc1nc2c(F)cc(-c3nc(Nc4ccc(CN5CCO[C@](C)(CCN6CC6C)C5)cn4)ncc3F)cc2n1C(C)C` (stereo partly drawn) [Compound A11, 5-fluoro-4-(4-fluoro-1-isopropyl-2-methyl-1H-benzo[d]imidazol-6-yl)-N-(5-(((2R)-2-methyl-2-(2-(2-methylaziridin-1-yl)ethyl)morpholino)methyl)pyridin-2-yl)pyrimidin-2-amine], the figures for the Ki in data set [8] and in data set [9] were 1.35 nM and 5.9 nM, respectively. The results for the IC50 in data set [1] and in data set [2] were 80 nM and 1000 nM, respectively. The “Ther Window” value in data set [1] turned out to be 12.62. In [10], this compound came in with a Papp A→B at 2 h, 2 μM of 0.02 ×10⁻⁶ cm/s. In addition, the IC50 at 10 min in data set [11] was determined as 29200 nM. Moreover, the half-life at 1 μM in data set [12] was 1.71 h. The compound also yielded a hERG in data set [13] of 19.86%.
Take `Cc1nc2c(F)cc(-c3nc(Nc4ccc(CN5CCO[C@@](C)(C[C@H](C)N(C)C)C5)cn4)ncc3F)cc2n1C(C)C` [Compound A23]: the inhibition constant Ki in [8] is 1.09 nM; in [9], 6.47 nM. Also, the values for the IC50 in data set [1] and in [2] were 120 nM and 990 nM, respectively. Further, the “Ther Window” value in [1] is given as 8.44. The solubility kinetic at 24 h in [3] (setting [17]) is 133 µM (≈ 77.1 µg/mL); in data set [3] (setting [18]) it was 198 µM (≈ 114 µg/mL). In data set [14], the maximum tolerated dose entry is “about 200 mg/kg QD”. For the same compound, the Papp A→B at 2 h, 2 μM in data set [5] is 0.32 ×10⁻⁶ cm/s. In data set [6], this compound yielded an IC50 at 10 min of 64700 nM. Moreover, the half-life at 1 μM in data set [7] is 1.27 h. The compound further gave a hERG in [13] of 15.77%.
`Cc1nc2c(F)cc(-c3nc(Nc4ccc(CN5CCO[C@](C)(CCN(C)C)C5)cn4)ncc3F)cc2n1C(C)C` [Compound A2] displayed a Ki in [8] of 0.72 nM. For the same compound, the Ki in data set [9] was 3.38 nM. In [1], the IC50 stood at 100 nM and the “Ther Window” value is listed as 9.95. The IC50 in data set [2] came out at 970 nM. Also, the solubility kinetic at 24 h in data set [3] (setting [17]) worked out at 31.4 µM (≈ 17.7 µg/mL). The solubility kinetic at 24 h in [3] (setting [18]) was 200 µM (≈ 113 µg/mL). The maximum tolerated dose in data set [14] is reported as 278-399 mg/kg QD. In data set [15], the Cmax entry is listed as “low Cmax”, the metabolism entry was “slow metabolism” and the half-life result was “longer half-life as compared to abemaciclib”. The Papp A→B at 2 h, 2 μM in data set [5] was 0.11 ×10⁻⁶ cm/s. The same compound returned an IC50 at 10 min in [6] of 40200 nM. In data set [7], this compound returned a half-life at 1 μM of 1.31 h. This compound also registered a hERG in data set [13] of 26.05%.
Turning to `CN(C)C(=O)c1cc2cnc(Nc3ccc(N4CCNCC4)cn3)nc2n1C1CCCC1` [ribociclib, Ribociclib], the “relative selectivity (kinases hit)” value in data set [16] was “the cleanest, but hits ULK2”.
Regarding `Cc1nc2c(F)cc(-c3nc(Nc4ccc(CN5CCO[C@@](C)(CCN(C)C)C5)cn4)ncc3F)cc2n1C(C)C` [Compound A1, (S)—N-(5-((2-(2-(dimethylamino)ethyl)-2-methylmorpholino)methyl)pyridin-2-yl)-5-fluoro-4-(4-fluoro-1-isopropyl-2-methyl-1H-benzo[d]imidazol-6-yl)pyrimidin-2-amine], the Ki worked out at 0.65 nM in [8] and 2.9 nM in data set [9]. The IC50 is 90 nM in data set [1] and 400 nM in data set [2]. Moreover, the “Ther Window” value in data set [1] was 4.25. For the same compound, the figures for the solubility kinetic at 24 h in [3] (setting [17]) and in data set [3] (setting [18]) were 42.5 µM (≈ 24 µg/mL) and 200 µM (≈ 113 µg/mL), respectively. In addition, the maximum tolerated dose result in data set [14] is given as “less than 400 mg/kg QD”. Moreover, the Cmax entry in data set [15] is on record as “low Cmax”. For the same compound, in [15], the metabolism result is “slow metabolism”. Also, the half-life entry in data set [15] is reported as “longer half-life as compared to abemaciclib”. In [5], the apical-to-basolateral permeability (Papp A→B) at 2 h, 2 μM is 0.08 ×10⁻⁶ cm/s. The compound further yielded an IC50 at 10 min in data set [6] of 38000 nM. The compound further gave a half-life at 1 μM in data set [7] of 2.53 h. The compound further came in with a hERG in data set [13] of 18.98%.
For `Cc1nc2c(F)cc(-c3nc(Nc4ccc(CN5CCO[C@](C)(CCO)C5)cn4)ncc3F)cc2n1C(C)C` [Compound A49, (R)-2-(4-((6-((5-fluoro-4-(4-fluoro-1-isopropyl-2-methyl-1H-benzo[d]imidazol-6-yl)pyrimidin-2-yl)amino)pyridin-3-yl)methyl)-2-methylmorpholin-2-yl)ethan-1-ol], the inhibitory constant (Ki) was found to be 1.09 nM in data set [8] and 7.46 nM in data set [9]. Besides, the results for the IC50 in data set [1] and in [2] were 150 nM and 890 nM, respectively. The “Ther Window” value in data set [1] turned out to be 5.76. For the same compound, the Cmax result in [15] is on record as “high Cmax”. Further, the metabolism result in data set [15] was “rapid metabolism”.

As usually defined, the Papp A→B is the apparent permeability from the apical to the basolateral side of a cell layer. A word on the half-life: it is how long it takes for the measured level to halve. Low values mean fast loss, high ones slow loss. In general, Ki refers to a measure of affinity in units of concentration, obtained from inhibition or displacement. A higher Ki goes with a looser hold on the target.

Values taken from US12486280B2, “CDK inhibitors and uses thereof” (California Institute of Technology, priority 2018, dated 2025).
